Source: publication PMC2928223 (Journal of molecular biology, 2009)

Target: T1, CgFMNAT (Nakaseomyces glabratus, UniProt Q6FNA9)
T1 sequence (Q6FNA9 1-304): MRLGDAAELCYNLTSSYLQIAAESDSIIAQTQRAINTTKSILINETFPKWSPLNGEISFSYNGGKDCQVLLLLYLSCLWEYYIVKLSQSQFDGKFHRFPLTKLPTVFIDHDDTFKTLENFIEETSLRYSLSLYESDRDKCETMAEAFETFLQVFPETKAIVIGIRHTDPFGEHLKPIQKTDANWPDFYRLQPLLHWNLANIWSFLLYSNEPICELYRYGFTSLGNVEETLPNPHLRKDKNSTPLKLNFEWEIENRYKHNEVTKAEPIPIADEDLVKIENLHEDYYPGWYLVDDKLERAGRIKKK

O=P(O)(O)OP(=O)(O)O [pyrophosphate]
X-ray crystal structure of product ternary complex (1.35 Å): the densities for both products FAD and pyrophosphate (PPi) are well defined
